Assay results taken from PubChem BioAssay AID248 (DTP/NCI, 2004).
Several values for one entry are separate records, joined by “and”; a condition that tells them apart may be missing. Identical values can stand only once. Toxic doses and inconclusive results are not listed. Cut-off read from the data, not from the text of the source: active = T/C of 150% or more; inactive = T/C below 125%.

Tested on: L1210 leukemia ip in BDF1 mice, survival T/C
Test: NCI In Vivo Anticancer Drug Screen. Data for tumor model L1210 Leukemia (intraperitoneal) in B6D2F1 (BDF1) mice
Settings: endpoint: mean survival time, higher = longer survival
Outline: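 Value reflects the ratio of survival in compound-treated mice to survival in vehicle-treated controls, with both groups carrying the same transplanted tumor.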

[1] = dose: 100.0 mg/kg/injection, schedule: Q01DX009 (ip), vehicle: Klucel (hydroxypropylcellulose) (HPC)
[2] = dose: 100.0 mg/kg/injection, schedule: Q04DX003 (ip), vehicle: Klucel (hydroxypropylcellulose) (HPC)
[3] = dose: 200.0 mg/kg/injection, schedule: Q01DX009 (ip), vehicle: Klucel (hydroxypropylcellulose) (HPC)
[4] = dose: 200.0 mg/kg/injection, schedule: Q04DX003 (ip), vehicle: Klucel (hydroxypropylcellulose) (HPC)
[5] = dose: 400.0 mg/kg/injection, schedule: Q01DX009 (ip), vehicle: Klucel (hydroxypropylcellulose) (HPC)
[6] = dose: 400.0 mg/kg/injection, schedule: Q04DX003 (ip), vehicle: Klucel (hydroxypropylcellulose) (HPC)
[7] = dose: 100.0 mg/kg/injection, schedule: Q01DX009 (ip), vehicle: saline with Tween-80
[8] = dose: 100.0 mg/kg/injection, schedule: Q04DX003 (ip), vehicle: saline with Tween-80
[9] = dose: 200.0 mg/kg/injection, schedule: Q01DX009 (ip), vehicle: saline with Tween-80
[10] = dose: 200.0 mg/kg/injection, schedule: Q04DX003 (ip), vehicle: saline with Tween-80
[11] = dose: 400.0 mg/kg/injection, schedule: Q01DX009 (ip), vehicle: saline with Tween-80
[12] = dose: 400.0 mg/kg/injection, schedule: Q04DX003 (ip), vehicle: saline with Tween-80

Measured: T/C

CC[NH-].CC[NH-].[Cl][Pt+2][Cl]
inactive: dose: 0.75 mg/kg/injection, schedule: Q01DX009 (ip), vehicle: other 106 % of control | dose: 1.5 mg/kg/injection, schedule: Q01DX001 (ip), vehicle: other 101 % of control | dose: 1.5 mg/kg/injection, schedule: Q01DX009 (ip), vehicle: other 118 % of control | dose: 2.6 mg/kg/injection, schedule: Q01DX009 (ip), vehicle: Klucel (hydroxypropylcellulose) (HPC) 108 % of control and 114 % of control | dose: 3.0 mg/kg/injection, schedule: Q01DX001 (ip), vehicle: other 106 % of control | dose: 3.0 mg/kg/injection, schedule: Q01DX009 (ip), vehicle: other 124 % of control | dose: 4.0 mg/kg/injection, schedule: Q01DX009 (ip), vehicle: Klucel (hydroxypropylcellulose) (HPC) 108 % of control and 119 % of control | dose: 5.0 mg/kg/injection, schedule: Q04DX003 (ip), vehicle: Klucel (hydroxypropylcellulose) (HPC) 107 % of control | dose: 6.0 mg/kg/injection, schedule: Q01DX009 (ip), vehicle: Klucel (hydroxypropylcellulose) (HPC) 115 % of control and 119 % of control | dose: 8.0 mg/kg/injection, schedule: Q04DX003 (ip), vehicle: Klucel (hydroxypropylcellulose) (HPC) 110 % of control | dose: 9.0 mg/kg/injection, schedule: Q01DX009 (ip), vehicle: Klucel (hydroxypropylcellulose) (HPC) 107 % of control | dose: 12.0 mg/kg/injection, schedule: Q01DX001 (ip), vehicle: other 121 % of control | dose: 12.5 mg/kg/injection, schedule: Q01DX009 (ip), vehicle: Klucel (hydroxypropylcellulose) (HPC) 119 % of control | dose: 18.0 mg/kg/injection, schedule: Q04DX003 (ip), vehicle: Klucel (hydroxypropylcellulose) (HPC) 117 % of control | dose: 25.0 mg/kg/injection, schedule: Q04DX003 (ip), vehicle: Klucel (hydroxypropylcellulose) (HPC) 90 % of control

N#CCCN(C(=O)Nc1cc(C(F)(F)F)ccc1Cl)C1CCCCC1
inactive: dose: 100.0 mg/kg/injection, schedule: Q04DX002 (ip), vehicle: Klucel (hydroxypropylcellulose) (HPC) 96 % of control | dose: 200.0 mg/kg/injection, schedule: Q04DX002 (ip), vehicle: Klucel (hydroxypropylcellulose) (HPC) 96 % of control | dose: 400.0 mg/kg/injection, schedule: Q04DX002 (ip), vehicle: Klucel (hydroxypropylcellulose) (HPC) 105 % of control

CNC(=O)C(C)(C)c1ccccc1
inactive: [1] 97 % of control | [2] 96 % of control | [3] 95 % of control | [4] 95 % of control | [5] 97 % of control | [6] 95 % of control

COc1cc(OC)cc(C2N(Cc3ccc(OC)c(OC)c3)CCN2Cc2ccc(OC)c(OC)c2)c1
inactive: [7] 100 % of control | [8] 104 % of control | [9] 108 % of control | [10] 100 % of control | [11] 101 % of control | [12] 98 % of control

C[Se](=O)O.[Pb]
inactive: dose: 3.13 mg/kg/injection, schedule: Q01DX001 (ip), vehicle: saline with Tween-80 98 % of control | dose: 6.25 mg/kg/injection, schedule: Q01DX001 (ip), vehicle: saline with Tween-80 98 % of control | dose: 12.5 mg/kg/injection, schedule: Q01DX001 (ip), vehicle: saline with Tween-80 88 % of control

O=C(O)C(F)(F)C(F)(F)F.[Ag]
inactive: dose: 75.0 mg/kg/injection, schedule: Q01DX001 (ip), vehicle: acetone 87 % of control

O=C(COc1cc(Cl)c(Cl)cc1Cl)Nc1ccc(-c2ccccc2)cc1
inactive: dose: 75.0 mg/kg/injection, schedule: Q04DX002 (ip), vehicle: Klucel (hydroxypropylcellulose) (HPC) 95 % of control | dose: 150.0 mg/kg/injection, schedule: Q04DX002 (ip), vehicle: Klucel (hydroxypropylcellulose) (HPC) 103 % of control | dose: 300.0 mg/kg/injection, schedule: Q04DX002 (ip), vehicle: Klucel (hydroxypropylcellulose) (HPC) 98 % of control

N#CCCC(C#N)(CCC#N)c1ccc([N+](=O)[O-])cc1
inactive: [7] 102 % of control | [8] 98 % of control | [9] 107 % of control | [10] 98 % of control | [11] 98 % of control | [12] 98 % of control

O=C(C=C(C(F)(F)F)C(F)(F)F)c1ccco1
inactive: dose: 12.5 mg/kg/injection, schedule: Q01DX009 (ip), vehicle: saline with Tween-80 100 % of control | dose: 25.0 mg/kg/injection, schedule: Q01DX009 (ip), vehicle: saline with Tween-80 104 % of control

Cc1ccccc1N=Cc1cccc([N+](=O)[O-])c1
inactive: dose: 100.0 mg/kg/injection, schedule: Q01DX001 (ip), vehicle: Klucel (hydroxypropylcellulose) (HPC) 107 % of control | [2] 98 % of control | dose: 200.0 mg/kg/injection, schedule: Q01DX001 (ip), vehicle: Klucel (hydroxypropylcellulose) (HPC) 107 % of control | [4] 101 % of control | dose: 400.0 mg/kg/injection, schedule: Q01DX001 (ip), vehicle: Klucel (hydroxypropylcellulose) (HPC) 112 % of control | [6] 98 % of control

CC(Br)C(Br)(C(=O)O)c1ccccc1 (stereo not drawn)
inactive: dose: 100.0 mg/kg/injection, schedule: Q04DX003 (ip), vehicle: other 91 % of control | dose: 200.0 mg/kg/injection, schedule: Q04DX003 (ip), vehicle: other 95 % of control | dose: 400.0 mg/kg/injection, schedule: Q04DX003 (ip), vehicle: other 96 % of control

Cc1cccc(Cl)c1NC(=O)Nc1c(C)n(C)n(-c2ccccc2)c1=O
inactive: [1] 100 % of control | [3] 102 % of control | [5] 100 % of control

COC1C(O)C(C)OC(OC2CC3CCC4C(CCC5(C)C(C6=CC(=O)OC6)CCC45O)C3(C)C(OC(C)=O)C2)C1O (stereo not drawn) (tested in a mixture with another compound)
inactive: dose: 25.0 mg/kg/injection, schedule: Q01DX009 (sc), vehicle: steriod suspending solution 101 % of control

CCC(C)C1NC(=O)C(C(C)=O)=C1O.[Cu+2] (stereo not drawn)
inactive: dose: 150.0 mg/kg/injection, schedule: Q01DX001 (ip), vehicle: carboxymethylcellulose (CMC) 105 % of control

Cc1ccc(S(=O)(=O)/C=C(/I)C(=O)c2ccccc2)cc1
inactive: dose: 100.0 mg/kg/injection, schedule: Q01DX001 (ip), vehicle: saline 95 % of control | dose: 200.0 mg/kg/injection, schedule: Q01DX001 (ip), vehicle: saline 93 % of control | dose: 400.0 mg/kg/injection, schedule: Q01DX001 (ip), vehicle: saline 95 % of control

BrC1CC/C=C\CCC1Br (stereo not drawn)
inactive: [1] 93 % of control | [2] 105 % of control | [3] 87 % of control | [4] 91 % of control | [5] 93 % of control | [6] 109 % of control

CC(=O)OCC1OC(n2ncc3c(=S)nc[nH]c32)C(OC(C)=O)C1OC(C)=O (stereo not drawn)
inactive: dose: 12.5 mg/kg/injection, schedule: Q01DX005 (ip), vehicle: other 98 % of control | dose: 25.0 mg/kg/injection, schedule: Q01DX005 (ip), vehicle: other 95 % of control | dose: 50.0 mg/kg/injection, schedule: Q01DX005 (ip), vehicle: other 104 % of control | dose: 100.0 mg/kg/injection, schedule: Q01DX005 (ip), vehicle: other 97 % of control | dose: 200.0 mg/kg/injection, schedule: Q01DX005 (ip), vehicle: other 93 % of control
